What is called IC50 is the point on the concentration scale where inhibition reaches its midpoint. As a reminder, the GI50 is the concentration at which growth is held to half of that of the control. As usually defined, the viability is a per cent measure of how many cells are alive, often set against a control. One may read the melting point as the temperature of the solid-liquid transition.

Read-outs that look alike come from different tables or passages of the source.

The source of these data is PMC9788418, “Design, Synthesis and Biological Evaluation of Syn and Anti-like Double Warhead Quinolinones Bearing Dihydroxy Naphthalene Moiety as Epidermal Growth Factor Receptor Inhibitors with Potential Apoptotic Antiproliferative Action” (Molecules, 2022).

Series [1] relates to MCF-10A (human mammary gland epithelial) cell line. The experiment in a line: Cell viability assay (MTT) on normal cell line. The class given is cell-based. The conditions noted are these: 50 µM, four days. The protocol:
(§1) A cell viability test was performed using MCF-10A (human mammary gland epithelial) cell line to investigate the effect of 4a–e and 7a–e on normal cell lines. In this investigation, a concentration of 50 µM of the studied compound is employed for four days, after which cell viability is assessed.
(§2) 4.2. Biological evaluation
(§3) 4.2.1. Cytotoxic activity using MTT Assay and evaluation of IC50
(§4) MTT assay was carried out to study the effect of compounds on mammary epithelial cells (MCF-10A). The medium in which cells were propagated contained Dulbecco's modified Eagle's medium (DMEM)/ Ham's F-12 medium (1:1) supplemented with epidermal growth factor (20 ng/mL), hydrocortisone (500 ng/mL), insulin (10 μg/mL), 2 mM glutamine and 10% foetal calf serum. After every 2-3 days, the cells were passaged using trypsin ethylenediamine tetra acetic acid (EDTA). The cells were seeded at a density of 10^4 cells mL-1 in flat-bottomed culture plates containing 96 wells each. After 24 h, medium was removed from the plates and the compounds in (in 0.1% DMSO) were added (in 200 μL medium to yield a final concentration of 0.1% v/v) to the wells of plates. A single compound was designated with four wells followed by incubation of plates for 96h at 37°C. After incubation, medium was removed completely from the plates followed by addition of MTT (0.4 mg/mL in medium) to each well and subsequent incubation of plates for 3h. MTT (along with the medium) was removed and DMSO (150μL) was added to each well of the culture plates, followed by vortexing and subsequent measurement of absorbance (at 540 nm) using microplate reader. […]

Series [2] deals with A-549 (epithelial cancer cell line). The experiment in a line: Antiproliferative assay. The format is cell-based, human. The conditions noted are these: read-out: Antiproliferative Activity IC50 ± SEM, A-549. How it is done: (§5) 4.2.1.2. Assay for antiproliferative effect
(§6) To explore the antiproliferative potential of compounds MTT assay was performed according to previously reported procedure using different cell lines to explore the antiproliferative potential of compounds propidium iodide fluorescence assay was performed using different cell lines. To calculate the total nuclear DNA, a fluorescent dye (propidium iodide, PI) is used which can attach to the DNA, thus offering a quick and precise technique. PI cannot pass through the cell membrane and its signal intensity can be considered as directly proportional to quantity of cellular DNA. Cells whose cell membranes are damaged or have changed permeability are counted as dead ones. The assay was performed by seeding the cells of different cell lines at a density of 3000-7500 cells/well (in 200µl […]
(§7) atmospheric conditions. The medium was removed; the compounds were added to the plates at 10 µM concentrations (in 0.1% DMSO) in triplicates, followed by incubation for 48 h. DMSO (0.1%) was used as control. After incubation, medium was removed followed by the addition of PI (25 µl, 50µg/mL in water/medium) to each well of the plates. At -80 °C, the plates were allowed to freeze for 24 h, followed by thawing at 25 °C. A fluorometer (Polar-Star BMG Tech) was used to record the readings at excitation and emission wavelengths of 530 and 620 nm for each well. The percentage cytotoxicity of compounds was calculated using the following formula:
(§8) Where ATC= Absorbance of treated cells and AC= Absorbance of control. […]
(§9) positive control in the assay.

Series [3] deals with HT-29 (colon cancer cell line). Description: Antiproliferative assay. The format is cell-based, human. The conditions noted are these: read-out: Antiproliferative Activity IC50 ± SEM, HT-29. The protocol:
as §5, §6, §7, §8, §9

Series [4] relates to MCF-7 (breast cancer cell line). Description: Antiproliferative assay. The class given is cell-based, human. The following applies: read-out: Antiproliferative Activity IC50 ± SEM, MCF-7. How it is done:
as §5, §6, §7, §8, §9

Series [5] relates to Panc-1 (pancreas cancer cell line). Description: Antiproliferative assay. The following applies: read-out: Antiproliferative Activity IC50 ± SEM, Panc-1. The format is cell-based, human. How it is done: as §2
4.2.1. Cytotoxic activity using MTT Assay and evaluation of IC50 […]
cells were seeded at a density of 10^4 cells mL-1 in flat-bottomed culture plates containing 96 wells each. After 24 h, medium was removed from the plates and the compounds in (in 0.1% DMSO) were added (in 200 μL medium to yield a final concentration of 0.1% v/v) to the wells of plates. A single […]
incubation, medium was removed completely from the plates followed by addition of MTT (0.4 mg/mL in medium) to each well and subsequent incubation of plates for 3h. MTT (along with the medium) was removed and DMSO (150μL) was added to each well of the culture plates, followed by vortexing and subsequent measurement of absorbance (at 540 nm) using microplate reader. The data […]
as §5, §6, §7, §8, §9

The test system of series [6] is four tested cancer cell lines (A-549, MCF-7, Panc-1, HT-29). Description: Antiproliferative assay, average over the four cell lines. The class given is cell-based, human. The conditions noted are these: for GI50: mean of the four cancer cell lines. The protocol:
The newly synthesized compounds were tested for antiproliferative activity against four different types of cancer cells: A-549 (epithelial cancer cell line), MCF-7 (breast cancer cell line), Panc-1 (pancreas cancer cell line), and HT-29 (colon cancer cell line).
After 24 h, medium was removed from the plates and the compounds in (in 0.1% DMSO) were added (in 200 μL medium to yield a final concentration of 0.1% v/v) to the wells of plates. A single compound was designated with four wells followed by incubation of plates for 96h at 37°C. After incubation, medium was removed completely from the plates followed by addition of MTT (0.4 mg/mL in medium) to each well and subsequent incubation of plates for 3h. MTT (along with the medium) was removed and DMSO (150μL) was added to each well of the culture plates, followed by vortexing and subsequent measurement of absorbance (at 540 nm) using microplate reader. The data are shown as percentage inhibition of proliferation in comparison with controls containing 0.1% 4.2.1.2. Assay for antiproliferative effect
To explore the antiproliferative potential of compounds MTT assay was performed according to previously reported procedure using different cell lines to explore the antiproliferative potential of compounds propidium iodide fluorescence assay was performed using different cell lines. To calculate the total nuclear DNA, a fluorescent dye (propidium iodide, PI) is used which can attach to the DNA, thus offering a quick and precise technique. PI cannot pass through the cell membrane and its signal intensity can be considered as directly proportional to quantity of cellular DNA. Cells whose cell membranes are damaged or have changed permeability are counted as dead ones. The assay was performed by seeding the cells of different cell lines at a density of 3000-7500 cells/well (in 200µl medium) in culture plates followed by incubation for 24h at 37 °C in humidified 5% CO2/95% air atmospheric conditions. The medium was removed; the compounds were added to the plates at 10 µM concentrations (in 0.1% DMSO) in triplicates, followed by incubation for 48 h. DMSO (0.1%) was used as control. After incubation, medium was removed followed by the addition of PI (25 µl, 50µg/mL in water/medium) to each well of the plates. At -80 °C, the plates were allowed to freeze for 24 h, followed by thawing at 25 °C. A fluorometer (Polar-Star BMG Tech) was used to record the readings at excitation and emission wavelengths of 530 and 620 nm for each well. The percentage cytotoxicity of compounds was calculated using the following formula:
Where ATC= Absorbance of treated cells and AC= Absorbance of control. Erlotinib was used as positive control in the assay.

Series [7] can be described thus: Cell viability assay (MTT) on normal cell line. The format is cell-based, human. The following applies: human, four days. The protocol:
as §1, §2, §3, §4

The test system of series [8] is caspase-3. The experiment in a line: Caspase-3 activation assay. The following applies: A-549, vs control untreated cells.
Experimental: (§10) record autophosphorylation level, EGFR kinase assay was carried out based on DELFIA/Time-
(§11) Resolved Fluorometry. The compounds were first dissolved in DMSO absolute, after dilution to
Each compound (10 µL) was incubated
(§12) with recombinant enzyme (10 µL, 5 ng for EGFR, 1:80 dilution in 100 mM HEPES) for 10 min at
(§13) 25 °C, after the addition of 5X buffer (10 µL, containing 2 mM MnCl2, 100 µM Na3VO4, 20 mM HEPES and 1 mM DTT) and ATP-MgCl2 (20 µL, containing 0.1 mM ATP and 50 mM MgCl2) and
(§14) incubation for 1h. The negative and positive controls were included in each plate by the incubation
(§15) of enzyme either with or without ATP-MgCl2. The liquid was removed after incubation and the plates
(§16) were washed thrice using wash buffer. Europium-tagged antiphosphotyrosine antibody (75 µL, 400
(§17) ng) was added to each well followed by incubation of 1h and then washing of the plates using buffer.
(§18) The enhancement solution was added to each well and the signal was recorded at excitation and
(§19) The autophosphorylation percentage inhibition by compounds was calculated using the following equation:
Series [9] has as its target T1, EGFR (Homo sapiens, UniProt P00533). Description: EGFR inhibitory assay (EGFR-TK, DELFIA/time-resolved fluorometry).
Experimental: EGFR-TK assay was performed to evaluate the inhibitory potency of novel compounds against
EGFR. Baculoviral expression vectors including pBlueBacHis2B and pFASTBacHTc were used
5ʹ upstream to the EGFR sequence comprised a sequence that encoded (His)6. Sf-9 cells were infected for 72h for protein expression. The pellets of Sf-9 cells were solubilized in a buffer containing sodium vanadate (100 µM), aprotinin (10 µg/mL), triton (1%), HEPES buffer (50mM), ammonium molybdate (10 µM), benzamidine HCl (16 µg/mL), NaCl (10 mM), leupeptin (10 µg/mL) and pepstatin (10 µg/mL) at 0°C for 20 min at pH 7.4, followed by centrifugation for 20 min.
To eliminate the non-specifically bound material, a Ni-NTA super flow packed column was used to pass through and wash the crude extract supernatant first with 10 mM and then with 100 mM imidazole. Histidine-linked proteins were first eluted with 250 and then with 500 mM imidazole after (1 picture or pasted object on this page, not shown here)
dialysis against NaCl (50 mM), HEPES (20 mM), glycerol (10%) and 1 µg/mL each of aprotinin, leupeptin and pepstatin for 120 min. The purification was performed either at 4 °C or on ice. To
as §10, §11
Each compound (10 µL) was incubated
as §12, §13, §14, §15, §16, §17, §18, §19
In a further series the test system is four cancer cell lines. The arrangement: method as in PMID 35195309. The following applies: cited from earlier work.
For series [10], the system named is caspase-3. The arrangement: method as in PMID 35195309. The following applies: human Panc-1 cancer cells; cited from earlier work.
The next series has as its system caspase-9. Set-up: method as in PMID 35195309. The conditions noted are these: human Panc-1 cancer cells; cited from earlier work.
A further series relates to Cytochrome-C. Set-up: method as in PMID 35195309. The following applies: human Panc-1 cancer cells; cited from earlier work.
For the next series, the system named is Bax. Set-up: method as in PMID 35195309. The conditions noted are these: vs normal untreated cells; cited from earlier work.
Another series has as its system Bcl-2. Set-up: method as in PMID 35195309. The conditions noted are these: cited from earlier work.
The target in series [11] is T1, EGFR. Set-up: 645–1186); His6 (N); made in house; host or cells: Sf-9 insect cells (baculovirus; pBlueBacHis2B and pFASTBacHTc vectors. The conditions noted are these: cited from earlier work.
Where [12] appears, read: MCF-10A mammary gland epithelial cells.

T1 sequence (P00533 669-1210): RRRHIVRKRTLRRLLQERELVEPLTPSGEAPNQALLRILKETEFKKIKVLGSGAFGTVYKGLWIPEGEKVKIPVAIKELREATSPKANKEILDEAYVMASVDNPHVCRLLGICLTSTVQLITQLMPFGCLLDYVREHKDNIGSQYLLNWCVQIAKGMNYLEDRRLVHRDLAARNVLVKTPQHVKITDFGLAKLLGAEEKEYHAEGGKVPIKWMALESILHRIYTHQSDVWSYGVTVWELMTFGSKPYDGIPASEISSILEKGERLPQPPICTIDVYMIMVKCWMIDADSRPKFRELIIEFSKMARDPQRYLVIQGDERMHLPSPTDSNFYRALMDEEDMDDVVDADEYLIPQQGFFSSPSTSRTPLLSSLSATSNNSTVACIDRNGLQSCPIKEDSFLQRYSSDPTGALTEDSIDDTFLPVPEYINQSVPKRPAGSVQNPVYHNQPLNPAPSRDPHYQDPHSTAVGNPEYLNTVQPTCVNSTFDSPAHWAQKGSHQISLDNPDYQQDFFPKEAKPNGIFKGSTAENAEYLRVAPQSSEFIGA

Turning to “4,4′-(((naphthalene-1,8-diylbis(oxy))bis(methylene))bis(1H-1,2,3-triazole-4,1-diyl))-bis-(8-methylquinolin-2(1H)-one) [Compound 4d]”, the “Cell Viability %” value in series [1] was 86%. The IC50 in [2] (A-549) amounted to 90 ± 9 nM; in series [3], 97 ± 9 nM; in series [4] (MCF-7), 95 ± 9 nM; in series [5] (Panc-1), 98 ± 9 nM. The same compound returned a GI50 in [6] of 95 nM. In addition, in [6] (relative to 4b), the “times less potent than 4b (GI50)” value is “at least twofold less potent”.
Take `COc1ccc2[nH]c(=O)cc(-n3cc(COc4cccc5cccc(OCc6cn(-c7cc(=O)[nH]c8ccc(OC)cc78)nn6)c45)nn3)c2c1` [Compound 4c, 4,4′-(((naphthalene-1,8-diylbis(oxy))bis(methylene))bis(1H-1,2,3-triazole-4,1-diyl))-bis-(6-methoxyquinolin-2(1H)-one)]: the melting point is more than 360 °C. In addition, the viability at 96 h, 50 µM in series [7] (setting [12]) came out at 87%. Also, in series [2] (Homo sapiens, A549), the IC50 was found to be 78 ± 8 nM. In addition, in series [3] (Homo sapiens), the IC50 was determined as 81 ± 8 nM. In series [4] (Homo sapiens, MCF7), the 50% inhibitory concentration (IC50) is 79 ± 8 nM. The IC50 in series [5] (Homo sapiens, PANC-1) is 83 ± 8 nM. The same compound displayed a GI50 in series [6] (Homo sapiens) of 80 nM.
`O=c1cc(-n2cc(COc3cccc4c(OCc5cn(-c6cc(=O)[nH]c7ccccc67)nn5)cccc34)nn2)c2ccccc2[nH]1` [Compound 7a, 4,4′-(((naphthalene-1,5-diylbis(oxy))bis(methylene))bis(1H-1,2,3-triazole-4,1-diyl))-bis-(quinolin-2(1H)-one)] yielded a melting point of more than 360 °C. This compound also showed a viability at 96 h, 50 µM in series [7] (setting [12]) of 89%. Further, in series [2] (Homo sapiens, A549), the half-maximal inhibitory concentration (IC50) was 57 ± 6 nM. Moreover, the IC50 in [3] (Homo sapiens) was 65 ± 6 nM. The IC50 in [4] (Homo sapiens, MCF7) turned out to be 59 ± 6 nM. Further, the IC50 in series [5] (Homo sapiens, PANC-1) came to 62 ± 6 nM.
Regarding `COc1ccc2[nH]c(=O)cc(-n3cc(COc4cccc5c(OCc6cn(-c7cc(=O)[nH]c8ccc(OC)cc78)nn6)cccc45)nn3)c2c1` [Compound 7c, 4,4′-(((naphthalene-1,5-diylbis(oxy))bis(methylene))bis(1H-1,2,3-triazole-4,1-diyl))-bis-(6-methoxyquinolin-2(1H)-one)], the melting point was more than 360 °C. Further, in series [7] (setting [12]), the viability at 96 h, 50 µM turned out to be 91%. Also, the IC50 in series [2] (Homo sapiens, A549) is 70 ± 7 nM. In addition, the IC50 in series [3] (Homo sapiens) was 76 ± 7 nM. Moreover, the IC50 in [4] (Homo sapiens, MCF7) is 74 ± 7 nM. The IC50 in series [5] (Homo sapiens, PANC-1) is 75 ± 7 nM. Besides, it took 74 nM to inhibit growth in series [6] (Homo sapiens) by half (GI50).
As for `Cc1cccc2c(-n3cc(COc4cccc5c(OCc6cn(-c7cc(=O)[nH]c8c(C)cccc78)nn6)cccc45)nn3)cc(=O)[nH]c12` [Compound 7d, 4,4′-(((naphthalene-1,5-diylbis(oxy))bis(methylene))bis(1H-1,2,3-triazole-4,1-diyl))-bis-(8-methylquinolin-2(1H)-one)], in series [7] (MCF-10A mammary gland epithelial cells (normal cell line)), the viability at 96 h, 50 µM stood at 89%. Also, the half-inhibitory concentration (IC50) in series [2] (Homo sapiens, A549) amounted to 50 ± 5 nM; in series [3] (Homo sapiens) it was 57 ± 5 nM; in series [4] (Homo sapiens, MCF7), 53 ± 5 nM; in series [5] (Homo sapiens, PANC-1), 57 ± 5 nM; against EGFR [9], 97 ± 9 nM. Besides, in series [6] (Homo sapiens), halving of growth (GI50) required 54 nM. In addition, the “Caspase-3 Fold Change” value in the series on caspase-3 [8] is recorded as 7.40. In addition, on EGFR [9] (relative to erlotinib), the “fold less effective than erlotinib (EGFR IC50)” value is “roughly 1.3 fold”.
As for `O=C(CSc1nnc(Cn2cc(-c3ccccc3)nn2)o1)Nc1nc(-c2ccc(Cl)cc2)cs1` [Compound VI], in the series on four cancer cell lines, the GI50 is 230 nM. The Caspase-3 level increase in the series on caspase-3 [10] was 7.80 times. Further, the Caspase-9 level increase with caspase-9 was 19.30 times. The Cytochrome-C level increase with Cytochrome-C was 13 times. Further, the Bax level elevation in the series on Bax is recorded as 40 fold. Besides, the Bcl-2 level decrease in the series on Bcl-2 was 6.3 fold. The IC50 on EGFR [11] is 110 nM.
For the compound `CN(C)c1ccc(/C=C/C(=O)c2ccc3ncc(C(N)=O)c(Nc4ccc(Cl)cc4)c3c2)cc1` [III], the IC50 on EGFR [11] is 5200 nM.
